Data: patent publication US5399487A, “6-peptidylamino-1-naphthalenesulfonamides useful as fluorogenic proteolytic enzyme substrates” (Haematologic Technologies, Inc., priority 1993, dated 1995)

How the values were obtained:
Assay type in all cases: biochemical
factor VIIa [1] = molecular target: T1, factor VIIa (Homo sapiens, UniProt P08709); assay: Fluorogenic enzyme assay, relative hydrolysis rates (Table 8); details: 10 nM enzyme, substrate 1 μM
T1 construct: directly measure the enzymatic activity of factor VIIa in the presence and absence of tissue factor and phospholipid
T1 sequence (P08709 213-466 limits assumed): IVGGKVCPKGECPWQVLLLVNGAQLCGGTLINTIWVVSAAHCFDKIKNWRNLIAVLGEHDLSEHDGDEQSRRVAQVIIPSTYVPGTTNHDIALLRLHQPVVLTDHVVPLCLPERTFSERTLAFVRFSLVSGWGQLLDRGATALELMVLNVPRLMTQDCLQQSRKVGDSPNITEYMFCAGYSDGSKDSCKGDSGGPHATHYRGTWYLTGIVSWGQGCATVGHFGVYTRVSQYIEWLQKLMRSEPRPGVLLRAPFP
T1 sequence (P08709 61-212 limits assumed): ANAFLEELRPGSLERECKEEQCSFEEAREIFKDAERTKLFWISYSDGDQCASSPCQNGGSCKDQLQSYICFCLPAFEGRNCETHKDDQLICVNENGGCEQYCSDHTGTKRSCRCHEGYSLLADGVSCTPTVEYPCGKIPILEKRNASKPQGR

factor VIIa [2] = assay: Factor VIIa substrate hydrolysis in presence and absence of tissue factor (FIG. 2); details: with vs without tissue factor
From the text: (§1) When coupled to methanesulfonyl-D-leucinyl-glycinyl-arginine(Mes-D-Leu-Gly-Arg), 6-amino-1-(N,N-diethyl)napthalenesulfonamide the resulting substrate yielded significant reactivity with factor VIIa. This substrate was sufficiently reactive with factor VIIa to allow reliable quantitation of factor VIIa activity at concentrations of about 10^-9 M. Further, this substrate was useful for the measurement of factor VIIa activity when it was bound to its co-factor protein tissue factor. The interaction of tissue factor with factor VIIa enhanced the factor VIIa dependent substrate hydrolysis by 120 fold. Thus, the invention provides unique substrates suitable for measuring both the activity of factor VIIa directly and in complex reactions involving the interaction between tissue factor and factor VIIa.
(§2) The binding of factor VIIa to tissue factor was analyzed by factor VIIa substrate hydrolysis when complexed with tissue factor. Tissue factor was relipidated into PC or PCPS vesicles as described above. The final concentration of tissue factor and phospholipid used for all binding studies was 2 nM and 200 μM respectively. In control experiments where tissue factor was in excess, 50 nM tissue factor and 200 μM PCPS vesicles were used. Recombinant factor VIIa (0.5 to 20 nM) was added to assembled TF/phospholipid complex and incubated for 15 minutes at 37° C. in HBS. The reaction was started by the addition of substrate (40 μM final) and the rate of substrate hydrolysis as reported by an increase in fluorescent intensity was recorded as described above in Example 5. The instrument was standardized daily using a 1 μM stock of the 6-amino-1-(N,N-diethyl)napthalenesulfonamide in HBS at 37° C. as described above.
(§3) The increase in the rate of factor VIIa substrate hydrolysis, both in the presence and absence of tissue factor, is linear over the concentration range tested, as shown in FIG. 2. […] In FIG. 2, filled triangles represent the rate of substrate hydrolysis as a function of increasing factor VIIa concentrations with an excess of tissue factor ([…]) in the assay. […]

factor VIIa [3] = molecular target: T1, factor VIIa; assay: as above
From the text: as §1, §2, §3

[4] = molecular target: activated protein C (APC) (Homo sapiens, UniProt P04070); assay: Fluorogenic enzyme assay (Example 5); set-up: key to Kinetic constants, APC (symbol b): slow substrate hydrolysis, no kinetic constants calculated
activated protein C (APC), sequence (P04070 212-461 limits assumed): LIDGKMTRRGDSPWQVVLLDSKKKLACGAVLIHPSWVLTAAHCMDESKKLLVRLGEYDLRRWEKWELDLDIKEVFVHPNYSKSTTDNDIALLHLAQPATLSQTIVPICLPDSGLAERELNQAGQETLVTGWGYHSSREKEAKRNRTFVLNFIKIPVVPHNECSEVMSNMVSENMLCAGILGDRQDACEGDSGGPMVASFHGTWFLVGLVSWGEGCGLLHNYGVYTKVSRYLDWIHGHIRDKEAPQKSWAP
activated protein C (APC), sequence (P04070 43-197 limits assumed): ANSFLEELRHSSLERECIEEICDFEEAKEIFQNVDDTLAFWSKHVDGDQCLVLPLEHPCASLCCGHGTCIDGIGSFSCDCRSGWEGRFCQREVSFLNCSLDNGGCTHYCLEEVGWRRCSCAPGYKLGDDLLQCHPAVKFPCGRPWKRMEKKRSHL
In short: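 Initial-rate measurement of fluorogenic substrate cleavage; TBS pH 7.4, room temperature (22° C). Fluorophore detected at ex 352/em 470 nm, quantified by standard curve; Km and kcat obtained by Michaelis-Menten regression.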

With `CCN(CC)S(=O)(=O)c1cccc2cc(NC(=O)[C@H](CCCNC(=N)N)NC(=O)CNC(=O)[C@@H](CC(C)C)NS(C)(=O)=O)ccc12` [MesD-LPR-ANSN(C2 H5)2, 6-(Mes-D-Leu-Gly-Arg)amino-1-(N,N-diethyl)napththalenesulfonamide] the “TIME TO 10% HYDROLYSIS (HOURS), VIIa” value (factor VIIa [1]) was 4 h, the “enhancement of factor VIIa dependent substrate hydrolysis by tissue factor” value (factor VIIa [2]; listed as 6-(Mes-D-Leu-Gly-Arg)amino-1-(N,N-diethyl)naphthalenesulfonamide) was 120 fold and the “enhancement of factor VIIa dependent substrate hydrolysis by tissue factor” value (factor VIIa [2]; listed as factor VIIa substrate) was > 100 fold. For the same compound, the “factor VIIa concentration allowing reliable quantitation of factor VIIa activity” value (factor VIIa [3]) was “about 10^-9 M”, the “TIME TO 10% HYDROLYSIS (HOURS), APC” value ([4]; 100 nM enzyme (footnote b), substrate 1 μM) was 0.5 h and the “Kinetic constants, APC (symbol b)” value ([4]; Table 9) was “b”.
